How the values were obtained:
[1] = biological target: T1, YSK4 (Homo sapiens, UniProt Q56UN5); test: KinomeScan ATP pocket binding inhibition, YSK4; conditions: 2,000 nM
T1 construct: purchased KinomeScan, a division of Ambit Biosciences
T1 sequence (Q56UN5 1-1328): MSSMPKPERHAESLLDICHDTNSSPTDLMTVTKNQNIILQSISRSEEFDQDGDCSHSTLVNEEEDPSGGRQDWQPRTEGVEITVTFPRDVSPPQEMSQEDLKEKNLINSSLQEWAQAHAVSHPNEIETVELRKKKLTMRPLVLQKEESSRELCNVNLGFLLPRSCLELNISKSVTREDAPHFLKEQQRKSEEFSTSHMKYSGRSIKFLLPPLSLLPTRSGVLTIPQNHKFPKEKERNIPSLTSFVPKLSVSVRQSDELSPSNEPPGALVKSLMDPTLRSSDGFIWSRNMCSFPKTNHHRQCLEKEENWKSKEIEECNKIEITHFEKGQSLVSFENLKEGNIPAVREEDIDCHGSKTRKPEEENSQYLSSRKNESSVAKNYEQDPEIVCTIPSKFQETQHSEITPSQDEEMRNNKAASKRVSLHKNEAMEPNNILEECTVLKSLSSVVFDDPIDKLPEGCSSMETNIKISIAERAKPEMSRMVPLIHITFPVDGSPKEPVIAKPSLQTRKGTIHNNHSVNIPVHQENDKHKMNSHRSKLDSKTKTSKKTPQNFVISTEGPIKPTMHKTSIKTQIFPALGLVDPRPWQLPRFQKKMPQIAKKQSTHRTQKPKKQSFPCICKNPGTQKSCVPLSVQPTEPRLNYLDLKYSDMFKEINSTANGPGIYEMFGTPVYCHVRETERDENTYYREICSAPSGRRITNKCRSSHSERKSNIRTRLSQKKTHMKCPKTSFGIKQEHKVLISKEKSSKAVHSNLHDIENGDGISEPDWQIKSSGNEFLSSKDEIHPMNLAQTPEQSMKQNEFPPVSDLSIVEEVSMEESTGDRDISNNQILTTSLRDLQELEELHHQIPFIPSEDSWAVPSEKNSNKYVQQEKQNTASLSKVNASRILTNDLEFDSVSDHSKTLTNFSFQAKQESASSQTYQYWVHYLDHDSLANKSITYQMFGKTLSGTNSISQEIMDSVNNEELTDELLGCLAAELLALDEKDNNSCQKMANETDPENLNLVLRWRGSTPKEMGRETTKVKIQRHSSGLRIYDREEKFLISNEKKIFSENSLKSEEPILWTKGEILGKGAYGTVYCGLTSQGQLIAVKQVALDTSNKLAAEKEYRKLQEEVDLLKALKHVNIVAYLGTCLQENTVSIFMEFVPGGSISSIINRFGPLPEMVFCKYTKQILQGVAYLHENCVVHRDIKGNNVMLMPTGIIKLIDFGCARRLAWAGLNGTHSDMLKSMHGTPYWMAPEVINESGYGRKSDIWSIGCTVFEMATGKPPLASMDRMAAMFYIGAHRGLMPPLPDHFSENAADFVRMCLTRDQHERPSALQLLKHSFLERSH
Text: (16) The results of this analysis are presented in FIGS. 6A-B in the form of an evolutionary dendrogram of the kinase family, where kinase inhibition is represented by red circles, the size of which represents the magnitude of the inhibition.

[2] = Solubility in 20% propylene glycol; type: physicochemical
Experimental: The compounds were also tested for solubility in 20% propylene glycol and in water, as follows. Compounds (dry powder) were dissolved in 20% propylene glycol at a concentration of 1 mM at a temperature of 40° C. with occasional vortexing. After 30 min, the solution was centrifuged at 10,000×g for 5 min. Serial dilutions of the cleared supernatant were prepared and used to measure the compound concentrations through OD reading, relative to 1 μM standard solution of the same compound. The results of the measurement were expressed as % solubility of the compound at 1 mM in 20% propylene glycol. To determine water solubility, the compounds (dry powder) were initially dissolved in water at a concentration of 100 mM at a temperature of 40° C. with occasional vortexing. After 30 min, the solution was centrifuged at 10,000×g for 5 min, and the formation of an insoluble pellet was monitored. At subsequent steps, the compound was attempted to be dissolved at lower concentrations, until no pellet was observed after centrifugation, indicating complete solution of the compound.

[3] = test system: CDKI pathway (CMV promoter stimulation by p21) in HT1080 fibrosarcoma cells; test: CDKI pathway inhibition cellular assay (CMV-GFP induction by IPTG-inducible p21); type: cell-based, human; conditions: for activity in cell-based CDKI pathway assay: CMV-GFP
Experimental: The compounds described below are shown in Table 1 and the structures of some novel compounds according to the invention are shown in FIG. 1. […] All the compounds were tested for the ability to inhibit the CDKI pathway in a cellular assay described in our previous patent application PCT/US06/01046. This assay is based on the induction of green fluorescent protein (GFP) expression from the cytomegalovirus (CMV) promoter in human HT1080 fibrosarcoma cells that express CDKI p21 from an isopropyl-β-thio-galactoside (IPTG)-inducible promoter. The compound activity as a CDKI pathway inhibitor is measured by its ability to prevent the stimulation of the CMV promoter upon the addition of p21-inducing IPTG. CMV promoter activity is measured by the ratio of GFP fluorescence to the relative cell number, as determined by staining cellular DNA with Hoechst 33342.

[4] = test system: MDA-MB-468 TNBC tumor invasion; test: Histological analysis of MDA-MB-468 tumor invasion (H&E); type: in vivo, female nude mice; conditions: tumors from FIG. 15B experiment
Text: At the end of the experiment shown in FIG. 15B, mice were sacrificed, tumors were removed, formalin fixed, sectioned and processed for histological analysis after H&E staining.

[5] = test system: MDA-MB-231; test: MDA-MB-231 orthotopic TNBC xenograft; type: in vivo, female SCID mice; conditions: 40 mg/kg, 5 daily doses, three rounds
Experimental: Once tumors were formed, mice were randomized into 4 cohorts (n=10) and treated, at 7-10 day intervals, with three rounds of: vehicle (5 daily doses), 1 mg/kg doxorubicin (single dose), 40 mg/kg Senexin B (5 daily doses) or doxorubicin (single dose)+Senexin B (5 daily doses).

[6] = test system: 4T1; test: Breast carcinoma cell growth, MTT, 4T1; type: cell-based; conditions: five days
[7] = test system: MDA-MB-468 triple-negative breast cancer (TNBC) cells; test: Pretreatment and treatment, MDA-MB-468 orthotopic engraftment; type: in vivo, female nude mice
Experimental: Next we tested the effect of 5-day pretreatment with 25 mg/kg daily doses of Senexin B (i.p.) on the engraftment of MDA-MB-468 triple-negative breast cancer (TNBC) cells, injected orthotopically in the fat pad of 6-8 week old female nude mice (4 per group), following the last Senexin B treatment. The appearance of palpable tumors was scored every day. […] In the experiment shown in FIG. 9B, mice were treated (daily i.p. injections with 40 mg/kg Senexin B) both before MDA-MB-468 injection (for three days) and after the injection.

CN1CCN(C(=O)c2ccc3cc(CCNc4ncnc5ccc(C#N)cc45)ccc3c2)CC1 [SNX2-1-165]
% inhibition of YSK4 [1]: 59% | % solubility at 1 mM in 20% propylene glycol ([2]; 1 mM, 40° C., 30 min, centrifuged, OD reading): 100% | solubility in 20% propylene glycol ([2]; at 1 mM): fully soluble | activity in cell-based CDKI pathway assay ([3]; IPTG-inducible p21): more active than any of the previously developed SNX2-class compounds | activity in cell-based CDKI pathway assay ([3]; IPTG-inducible p21, listed as Senexin B): potently inhibited | EC50 ([3]; IPTG-induced p21, CMV-GFP / Hoechst 33342, read-out: Cell-based Assay EC50): 530 nM | invasive or non-invasive tumor growth [4]: non-invasive | body weight difference from control [5]: no significant weight difference from the control | growth inhibition, 4T1 [6]: not inhibited except for the highest concentrations | appearance of palpable tumors ([7]; 5-day pretreatment 25 mg/kg daily i.p.): significantly slower appearance of palpable tumors | tumor growth (tumor volumes, caliper) ([7]; daily i.p. 40 mg/kg, three days before and after injection): strong and sustained inhibition of tumor growth
